Measured values reported in ChEMBL document CHEMBL1268826, “Discovery of the inhibitors of tumor necrosis factor alpha with structure-based virtual screening” (Bioorg Med Chem Lett, 2010).

molecular target: T1, Tumor necrosis factor (Mus musculus) (UniProt P06804); test: Inhibition of TNFalpha in LPS-stimulated mouse RAW264.7 cells at 10 uM after 2 hrs treated after 14 hrs of LPS challenge by FACS analysis; type: cell-based
T1 sequence (whole entry): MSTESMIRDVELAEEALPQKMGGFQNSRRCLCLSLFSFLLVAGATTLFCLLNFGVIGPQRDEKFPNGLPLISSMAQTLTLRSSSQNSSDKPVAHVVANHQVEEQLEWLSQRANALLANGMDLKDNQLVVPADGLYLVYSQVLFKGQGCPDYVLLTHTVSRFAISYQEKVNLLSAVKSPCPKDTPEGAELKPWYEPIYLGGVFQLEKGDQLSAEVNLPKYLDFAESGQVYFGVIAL

Structure (SMILES) | inhibition
c1ccc(-n2ncc3c(NCCN4CCCCC4)ncnc32)cc1 | 45.8%
O=C1NC(=O)N(c2ccccc2)C(=O)/C1=C\c1ccccc1OCc1ccccc1Cl | 47.9%
Cc1cccc(N2C(=O)NC(=O)/C(=C/c3ccc(-c4ccc(C(=O)O)c(Cl)c4)o3)C2=O)c1 | 64%
O=C1NC(=O)N(c2ccc3c(c2)OCO3)C(=O)/C1=C\c1cn(Cc2ccccc2Cl)c2ccccc12 | 54.6%
NC(=O)c1cc(-c2csc(C3COc4ccccc4O3)n2)ccc1OCc1ccccc1 (stereo unspecified) | 52.6%
O=c1cc(-c2ccccc2)oc2cc(O)c(O)c(O)c12 | 71.3%
